Reference: the NIST ThermoML archive (doi:10.1016/j.jct.2009.07.002)
Numbers after ± are expanded uncertainties.

Test: isobaric coefficient of expansion
Conditions: Liquid, DSC with Pressure Shift

CCC(O)CC [3-pentanol]
isobaric coefficient of expansion
Conditions	278.15 K	288.15 K	298.15 K	308.15 K	318.15 K	328.15 K	338.15 K	348.15 K
5000 kPa	0.000898 ± 3.8e-05 1/K	0.000935 ± 4e-05 1/K	0.000971 ± 4.1e-05 1/K	0.00101 ± 4.3e-05 1/K	0.00106 ± 4.5e-05 1/K	0.00109 ± 4.6e-05 1/K	0.00115 ± 4.9e-05 1/K	0.0012 ± 5.1e-05 1/K
10000 kPa	0.000875 ± 3.7e-05 1/K	0.000916 ± 3.9e-05 1/K	0.000952 ± 4e-05 1/K	0.00099 ± 4.2e-05 1/K	0.00103 ± 4.4e-05 1/K	0.00107 ± 4.5e-05 1/K	0.00113 ± 4.8e-05 1/K	0.00117 ± 5e-05 1/K
15000 kPa	0.000861 ± 3.7e-05 1/K	0.000898 ± 3.8e-05 1/K	0.000935 ± 4e-05 1/K	0.00097 ± 4.1e-05 1/K	0.00101 ± 4.3e-05 1/K	0.00104 ± 4.4e-05 1/K	0.0011 ± 4.7e-05 1/K	0.00113 ± 4.8e-05 1/K
20000 kPa	0.00085 ± 3.6e-05 1/K	0.000882 ± 3.7e-05 1/K	0.000917 ± 3.9e-05 1/K	0.000953 ± 4e-05 1/K	0.000989 ± 4.2e-05 1/K	0.00103 ± 4.4e-05 1/K	0.00107 ± 4.6e-05 1/K	0.00111 ± 4.7e-05 1/K
25000 kPa	0.000826 ± 3.5e-05 1/K	0.000868 ± 3.7e-05 1/K	0.000899 ± 3.8e-05 1/K	0.000934 ± 4e-05 1/K	0.00097 ± 4.1e-05 1/K	0.00101 ± 4.3e-05 1/K	0.00105 ± 4.4e-05 1/K	0.00108 ± 4.6e-05 1/K
30000 kPa	0.000814 ± 3.5e-05 1/K	0.00085 ± 3.6e-05 1/K	0.00088 ± 3.7e-05 1/K	0.000919 ± 3.9e-05 1/K	0.000952 ± 4e-05 1/K	0.000983 ± 4.2e-05 1/K	0.00102 ± 4.3e-05 1/K	0.00106 ± 4.5e-05 1/K
35000 kPa	0.000802 ± 3.4e-05 1/K	0.000837 ± 3.6e-05 1/K	0.000866 ± 3.7e-05 1/K	0.000899 ± 3.8e-05 1/K	0.000932 ± 4e-05 1/K	0.000965 ± 4.1e-05 1/K	0.001 ± 4.2e-05 1/K	0.00103 ± 4.4e-05 1/K
40000 kPa	0.000799 ± 3.4e-05 1/K	0.000823 ± 3.5e-05 1/K	0.000852 ± 3.6e-05 1/K	0.000888 ± 3.8e-05 1/K	0.000914 ± 3.9e-05 1/K	0.000949 ± 4e-05 1/K	0.000976 ± 4.1e-05 1/K	0.00101 ± 4.3e-05 1/K
45000 kPa	0.000766 ± 3.2e-05 1/K	0.000807 ± 3.4e-05 1/K	0.000839 ± 3.6e-05 1/K	0.000869 ± 3.7e-05 1/K	0.000897 ± 3.8e-05 1/K	0.00093 ± 3.9e-05 1/K	0.000953 ± 4e-05 1/K	0.000986 ± 4.2e-05 1/K
50000 kPa	0.000769 ± 3.3e-05 1/K	0.000792 ± 3.4e-05 1/K	0.000822 ± 3.5e-05 1/K	0.000852 ± 3.6e-05 1/K	0.000879 ± 3.7e-05 1/K	0.000907 ± 3.9e-05 1/K	0.000931 ± 3.9e-05 1/K	0.00096 ± 4.1e-05 1/K
55000 kPa	0.000743 ± 3.2e-05 1/K	0.000771 ± 3.3e-05 1/K	0.000806 ± 3.4e-05 1/K	0.000837 ± 3.6e-05 1/K	0.000862 ± 3.7e-05 1/K	0.000887 ± 3.8e-05 1/K	0.00091 ± 3.9e-05 1/K	0.000936 ± 4e-05 1/K

CCCO [propan-1-ol]
isobaric coefficient of expansion
Conditions	278.15 K	288.15 K	298.15 K	308.15 K	318.15 K	328.15 K	338.15 K	348.15 K
5000 kPa	0.000927 ± 3.9e-05 1/K	0.000947 ± 4e-05 1/K	0.000967 ± 4.1e-05 1/K	0.001 ± 4.3e-05 1/K	0.00104 ± 4.4e-05 1/K	0.00107 ± 4.6e-05 1/K	0.00111 ± 4.7e-05 1/K	0.00116 ± 4.9e-05 1/K
10000 kPa	0.000901 ± 3.8e-05 1/K	0.000923 ± 3.9e-05 1/K	0.000943 ± 4e-05 1/K	0.000975 ± 4.1e-05 1/K	0.001 ± 4.3e-05 1/K	0.00104 ± 4.4e-05 1/K	0.00108 ± 4.6e-05 1/K	0.00112 ± 4.8e-05 1/K
15000 kPa	0.000883 ± 3.7e-05 1/K	0.000902 ± 3.8e-05 1/K	0.00092 ± 3.9e-05 1/K	0.000948 ± 4e-05 1/K	0.000976 ± 4.1e-05 1/K	0.00101 ± 4.3e-05 1/K	0.00104 ± 4.4e-05 1/K	0.00108 ± 4.6e-05 1/K
20000 kPa	0.000868 ± 3.7e-05 1/K	0.000884 ± 3.8e-05 1/K	0.000899 ± 3.8e-05 1/K	0.000925 ± 3.9e-05 1/K	0.000947 ± 4e-05 1/K	0.000975 ± 4.1e-05 1/K	0.00101 ± 4.3e-05 1/K	0.00105 ± 4.4e-05 1/K
25000 kPa	0.00085 ± 3.6e-05 1/K	0.000867 ± 3.7e-05 1/K	0.000877 ± 3.7e-05 1/K	0.0009 ± 3.8e-05 1/K	0.000922 ± 3.9e-05 1/K	0.00095 ± 4e-05 1/K	0.000977 ± 4.1e-05 1/K	0.00101 ± 4.3e-05 1/K
30000 kPa	0.000834 ± 3.5e-05 1/K	0.000848 ± 3.6e-05 1/K	0.000858 ± 3.6e-05 1/K	0.000882 ± 3.7e-05 1/K	0.000899 ± 3.8e-05 1/K	0.000923 ± 3.9e-05 1/K	0.000951 ± 4e-05 1/K	0.000984 ± 4.2e-05 1/K
35000 kPa	0.000818 ± 3.5e-05 1/K	0.00083 ± 3.5e-05 1/K	0.000843 ± 3.6e-05 1/K	0.000859 ± 3.6e-05 1/K	0.00088 ± 3.7e-05 1/K	0.000901 ± 3.8e-05 1/K	0.000926 ± 3.9e-05 1/K	0.000958 ± 4.1e-05 1/K
40000 kPa	0.000803 ± 3.4e-05 1/K	0.000816 ± 3.5e-05 1/K	0.000822 ± 3.5e-05 1/K	0.000844 ± 3.6e-05 1/K	0.000854 ± 3.6e-05 1/K	0.000878 ± 3.7e-05 1/K	0.000899 ± 3.8e-05 1/K	0.000927 ± 3.9e-05 1/K
45000 kPa	0.00079 ± 3.4e-05 1/K	0.000801 ± 3.4e-05 1/K	0.000811 ± 3.4e-05 1/K	0.000824 ± 3.5e-05 1/K	0.000839 ± 3.6e-05 1/K	0.000858 ± 3.6e-05 1/K	0.000881 ± 3.7e-05 1/K	0.000906 ± 3.8e-05 1/K
50000 kPa	0.000777 ± 3.3e-05 1/K	0.000786 ± 3.3e-05 1/K	0.000795 ± 3.4e-05 1/K	0.000809 ± 3.4e-05 1/K	0.000822 ± 3.5e-05 1/K	0.000838 ± 3.6e-05 1/K	0.000862 ± 3.7e-05 1/K	0.000885 ± 3.8e-05 1/K
55000 kPa	0.000767 ± 3.3e-05 1/K	0.000775 ± 3.3e-05 1/K	0.000781 ± 3.3e-05 1/K	0.000794 ± 3.4e-05 1/K	0.000806 ± 3.4e-05 1/K	0.000821 ± 3.5e-05 1/K	0.000837 ± 3.6e-05 1/K	0.000861 ± 3.7e-05 1/K
